Data as given in patent publication EP0226508A1, “Indolo[3,2-c]quinoline derivatives, process for their preparation and their anti-tumour activity” (priority 1985, dated 1987).
Several values for one entry are separate records, joined by “and”; a condition that tells them apart may be missing. Equal entries are not always repeated. Each block holds one compound with its values, some of them ahead of it.

Experiments:
[1] = system: souris consanguines DBA₂ saines; experiment: Acute toxicity, single intraperitoneal injection in healthy mice, mortality at day 7; type: in vivo; settings: single i.p. injection, 50 mg/kg
[2] = system: lignée tumorale leucémie L 1210; experiment: In vitro cytotoxic activity on L 1210 leukemia cell culture (inhibition of cell proliferation); type: cell-based; settings: Mus musculus, L1210; L 1210 culture in exponential growth, 37°C, after 48 hours of contact; read-out: ID 50 (the source's name)
Protocol: 1) In vitro : (PAOLETTI et al., Chem. Biol. Interaction, 1979, 25, 45-58).
L'activité cytotoxique des composés de l'invention a été évaluée par des essais in vitro. Ces essais consistent à ajouter des concentrations croissantes du composé à tester à une culture cellulaire de la lignée tumorale leucémie L 1210 en phase exponentielle de croissance. Les cellules sont incubées à 37°C dans une étuve à CO₂ et comptées toutes les 24 heures. Le calcul de l'ID₅₀ (concentration du produit exprimée en micromole 1⁻¹ qui inhibe la prolifération cellulaire à 50 p. 100) est effectuée après 48 heures de contact. Ainsi déterminées les ID₅₀ des composés de l'invention sont rassemblées dans le tableau ci-après.

leucémie P 388 = experiment: animal or person; type: in vivo, souris hybrides CDF 1; settings: for Nombre de survivants: survivors at J 40; for Variation pondérale en g: in vivo, ip
Text: (§1) L'activité antitumorale a été testée in vivo sur différentes tumeurs selon le protocole général suivant:
(§2) Toutes les souris mâles ou femelles sont inoculées par voie intrapéritonéale au jour Jo avec une quantité déterminée de cellules tumorales viables, variable selon la tumeur.
(§3) Elles sont ensuite réparties en différents lots. Chaque lot correspondant aux animaux traités par le produit à tester à une dose déterminée est composé de 10 souris. Dans ce cas, le produit à tester est dissous dans l'eau distillée et il est administré, pendant n jours (J₁-Jn) variables selon le protocole choisi, par voie intrapéritonéale à raison de 0,1 ml par 10 g de poids des souris traitées, les doses du produit administré étant précisées dans les tableaux ci-dessous.
(§4) Le lot "contrôle négatif", correspondant aux animaux qui ne sont pas traités par un produit, comprend 2 √N animaux, N étant égal au nombre total de souris traitées par un produit.
(§5) Enfin, tous les essais sont conduits parallèlement à l'étude d'un lot appelé "contrôle positif" de 10 animaux qui est traité par une molécule active, variable selon le protocole choisi, dans les mêmes conditions que les lots traités par le produit à tester, afin de valider l'essai.
(§6) L'activité antitumorale est évaluée en considé-rant l'augmentation du temps de survie des animaux traités par rapport à celui des animaux du lot "contrôle négatif" selon la formule : [formula]
(§7) Un composé est considéré comme étant actif lorsque la valeur du rapport T/C est égale ou supérieure à 125 % selon le protocole retenu. Il est toxique lorsque cette valeur est égale ou inférieure à 85 %. Le produit est également considéré comme toxique lorsque la variation pondérale, exprimée en grammes et calculée par la formule : Poids moyen du lot mesuré au jour 5 -poids moyen du même lot au jour 1 est égale ou inférieure à - 4 g.
a) Test de la leucémie P 388 (GERAN et al., Cancer Chemother, 1972, 2, 07-57).
Les essais sont effectués avec des souris hybrides CDF 1 inoculées par voie intrapéritonéale avec 10⁶ cellules leucémiques de la lignée P 388. Le composé à tester est administré pendant 5 jours (J1-J5). Le contrôle positif du test est le 5-fluorouracile qui est administré dans les mêmes conditions. Le nombre d'animaux survivants est évalué au jour J 40. Un composé est considéré comme étant actif lorsque le rapport T/C est supérieur à 127 %.

mélanome B 16 = experiment: In vivo antitumour activity, B 16 melanoma test; design: species or system souris hybrides BDF₁; settings: B 16 melanoma, BDF₁ mice, 1 mg/kg i.p. J1-J9
Text: as §1, §2, §3, §4, §5, §6
Le produit est également considéré comme toxique lorsque la variation pondérale, exprimée en grammes et calculée par la formule : Poids moyen du lot mesuré au jour 5 -poids moyen du même lot au jour 1 est égale ou inférieure à - 4 g.
Les essais sont effectués avec des souris hybrides BDF₁ inoculées avec 0,5 ml d'un homogénat de mélanome B 16 réalisé à partir de 1 g de tumeur dans 10 ml de sérum physiologique. Le composé à tester est administré pendant 9 jours (J₁-J₉).Le contrôle positif du test est le Cis-Platine administré dans les mêmes conditions. Le nombre d'animaux survivants est évalué au jour J 60.

leucémie L 1210 = experiment: In vivo antitumour activity, L 1210 leukemia test; design: species or system souris hybrides CDF₁; settings: for Nombre de survivants: survivors at J 30
Text: as §1, §2, §3, §4, §5, §6, §7
b) Test de la leucémie L 1210 (GERAN et al., Cancer Chemother, 1972, 2, 07-57).
Les essais sont effectués avec des souris hybrides CDF₁ inoculées avec 10⁵ cellules leucémiques de la lignée L 1210. Le composé à tester est administré pendant 5 jours (J₁-J₅).Le contrôle positif du test est le 5-fluorouracile administré dans les mêmes conditions. Le nombre d'animaux survivants est évalué au jour J 30. Un composé est considéré comme étant actif lorsque le rapport T/C est supérieur ou égal à 125 %.

[3] = Mus musculus, P388, ip, P 388, CDF 1 mice, 5 mg/kg i.p. J1-J5, read-out: T/C %
[4] = Mus musculus, P388, ip, P 388, CDF 1 mice, 10 mg/kg i.p. J1-J5, read-out: T/C %
[5] = Mus musculus, P388, ip, P 388, CDF 1 mice, 2,5 mg/kg i.p. J1-J5, read-out: T/C %
[6] = P 388, CDF 1 mice, 5 mg/kg i.p. J1-J5
[7] = P 388, CDF 1 mice, 10 mg/kg i.p. J1-J5
[8] = P 388, CDF 1 mice, 2,5 mg/kg i.p. J1-J5
[9] = Mus musculus, P388, ip, P 388, CDF 1 mice, 20 mg/kg i.p. J1-J5, read-out: T/C %
[10] = Mus musculus, P388, ip, P 388, CDF 1 mice, 40 mg/kg i.p. J1-J5, read-out: T/C %
[11] = P 388, CDF 1 mice, 20 mg/kg i.p. J1-J5
[12] = P 388, CDF 1 mice, 40 mg/kg i.p. J1-J5
[13] = L 1210, CDF₁ mice, 5 mg/kg i.p. J1-J5
[14] = L 1210, CDF₁ mice, 10 mg/kg i.p. J1-J5
[15] = L 1210, CDF₁ mice, 20 mg/kg i.p. J1-J5
[16] = L 1210, CDF₁ mice, 2,5 mg/kg i.p. J1-J5
[17] = L 1210, CDF₁ mice, 20 mg/kg i.p. J1-J5, 20 mg/kg
[18] = L 1210, CDF₁ mice, 20 mg/kg i.p. J1-J5, listed as 5 Fluoro-uracile, 20 mg/kg

Structure (SMILES): CN(C)CCCNc1nc2ccccc2c2[nH]c3ccc(O)cc3c12 [Dérivé N°12, (diméthylamino-3 propylamino)-6 hydroxy-8 11-H indolo [3,2-c]quinoléine]
- mortalité évaluée au septième jour après l'administration [1]: aucune mortalité
- IC50 [2]: 80 nM
- response vs control in vivo at 5 mg/kg (leucémie P 388; [3]): 155%
- response vs control in vivo at 10 mg/kg (leucémie P 388; [4]): 141%
- response vs control in vivo at 0.625 mg/kg (leucémie P 388; Mus musculus, P388, ip, P 388, CDF 1 mice, 0,625 mg/kg i.p. J1-J5, read-out: T/C %): 129%
- response vs control in vivo at 1.25 mg/kg (leucémie P 388; Mus musculus, P388, ip, P 388, CDF 1 mice, 1,25 mg/kg i.p. J1-J5, read-out: T/C %): 130%
- response vs control in vivo at 2.5 mg/kg (leucémie P 388; [5]): 141%
- Nombre de survivants (leucémie P 388; [6]): 0
- Nombre de survivants (leucémie P 388; [7]): 0
- Nombre de survivants (leucémie P 388; P 388, CDF 1 mice, 0,625 mg/kg i.p. J1-J5): 0
- Nombre de survivants (leucémie P 388; P 388, CDF 1 mice, 1,25 mg/kg i.p. J1-J5): 0
- Nombre de survivants (leucémie P 388; [8]): 0
- Variation pondérale en g (leucémie P 388; 5 mg/kg): - 1,2 g
- Variation pondérale en g (leucémie P 388; 10 mg/kg): - 1,7 g

Structure (SMILES): CCN(CC)CCCNc1nc2ccccc2c2[nH]c3ccc(OC)cc3c12 [Dérivé N°5, (diéthylamino-3 propylamino)-6 méthoxy-8 11-H indolo[3,2-c]quinoléine]
- mortalité évaluée au septième jour après l'administration [1]: aucune mortalité
- IC50 [2]: 690 nM
- response vs control in vivo at 10 mg/kg (leucémie P 388; [4]): 128%
- response vs control in vivo at 20 mg/kg (leucémie P 388; [9]): 124%
- response vs control in vivo at 40 mg/kg (leucémie P 388; [10]): 80%
- Nombre de survivants (leucémie P 388; [7]): 0
- Nombre de survivants (leucémie P 388; [11]): 0
- Nombre de survivants (leucémie P 388; [12]): 0
- Variation pondérale en g (leucémie P 388; 10 mg/kg): - 0,6 g
- Variation pondérale en g (leucémie P 388; 20 mg/kg): + 0,8 g
- Variation pondérale en g (leucémie P 388; 40 mg/kg): - 2,1 g

Structure (SMILES): [NH2][Pt]([NH2])([Cl])[Cl] [Cis-Platine, reference compound]
- Jour médian de survie (mélanome B 16; 1 mg/kg): 39 and 37
- T/C % (mélanome B 16; 1 mg/kg): 140% and 142% and 157%
- Nombre de survivants (mélanome B 16; survivors at J 60): 0

Structure (SMILES): COc1ccc2[nH]c3c4ccccc4nc(NCCCN(C)C)c3c2c1 [Dérivé N°6, (diméthylamino-3 propylamino)-6 méthoxy-8 11-H indolo [3,2-c]quinoléine]
- IC50 [2]: 800 nM

Structure (SMILES): CCNCCCNc1nc2ccccc2c2[nH]c3ccc(OC)cc3c12 [Dérivé N°10, (éthylamino-3 propylamino)-6 méthoxy-8 11-H indolo [3,2-c]quinoléine]
- IC50 [2]: 580 nM

- Variation pondérale en g (leucémie P 388; 5 mg/kg): + 2,3 g
- Variation pondérale en g (leucémie P 388; 10 mg/kg): + 1,3 g
- Variation pondérale en g (leucémie P 388; 20 mg/kg): + 1,1 g
- Variation pondérale en g (leucémie P 388; 40 mg/kg): + 3,8 g
Structure (SMILES): CN(C)CCCNc1nc2ccccc2c2c1c1cc(O)ccc1n2C [Dérivé N°4, (diméthylamino-3 propylamino)-6 hydroxy-8 méthyl-11 11-H indolo[3,2-c]quinoléine]
- IC50 [2]: 40 nM
- response vs control in vivo at 5 mg/kg (leucémie P 388; [3]): 133%
- response vs control in vivo at 10 mg/kg (leucémie P 388; [4]): 136%
- response vs control in vivo at 20 mg/kg (leucémie P 388; [9]): 137%
- response vs control in vivo at 40 mg/kg (leucémie P 388; [10]): 65%
- response vs control in vivo at 2.5 mg/kg (leucémie P 388; [5]): 129%
- Nombre de survivants (leucémie P 388; [6]): 0
- Nombre de survivants (leucémie P 388; [7]): 0
- Nombre de survivants (leucémie P 388; [11]): 0
- Nombre de survivants (leucémie P 388; [12]): 0
- Nombre de survivants (leucémie P 388; [8]): 0
- Jour médian de survie (leucémie L 1210; [13]): 13,0
- T/C % (leucémie L 1210; [13]): 158%
- Nombre de survivants (leucémie L 1210; [13]): 0
- Jour médian de survie (leucémie L 1210; [14]): 11,25
- T/C % (leucémie L 1210; [14]): 137%
- Nombre de survivants (leucémie L 1210; [14]): 0
- Jour médian de survie (leucémie L 1210; [15]): 10,1
- T/C % (leucémie L 1210; [15]): 123%
- Nombre de survivants (leucémie L 1210; [15]): 0
- Jour médian de survie (leucémie L 1210; [16]): 10,3
- T/C % (leucémie L 1210; [16]): 126%
- Nombre de survivants (leucémie L 1210; [16]): 0

Structure (SMILES): CCN(CC)CCNc1nc2ccccc2c2[nH]c3ccc(O)cc3c12 [Dérivé N°13, (diéthylamino-2 éthylamino)-6 hydroxy-8 11-H indolo[3,2-c]quinoléine]
- IC50 [2]: 2600 nM

Structure (SMILES): COc1ccc2[nH]c3c4ccccc4nc(NCCCN4CCOCC4)c3c2c1 [Dérivé N°8, méthoxy-8 (morpholino-3 propylamino)-6 11-H indolo[3,2-c]quinoléine]
- IC50 [2]: 610 nM

Structure (SMILES): O=c1[nH]cc(F)c(=O)[nH]1 [5 - Fluoro-uracile, 5-fluorouracile, reference compound]
- Nombre de survivants (leucémie P 388; [11]): 0
- Jour médian de survie (leucémie L 1210; [17]): 15,7 and 14,5
- T/C % (leucémie L 1210; [17]): 191% and 183%
- Jour médian de survie (leucémie L 1210; [18]): 15,5
- T/C % (leucémie L 1210; [18]): 174%
- Nombre de survivants (leucémie L 1210; [15]): 0

Structure (SMILES): CCN(CC)CCNc1nc2ccccc2c2[nH]c3ccc(OC)cc3c12 [Dérivé N°7, (diéthylamino-2 éthylamino)-6 méthoxy-8 11-H indolo[3,2-c]quinoléine]
- IC50 [2]: 2100 nM

Structure (SMILES): COc1ccc2[nH]c3c4ccccc4nc(NCCCN4CCCCC4)c3c2c1 [Dérivé N°9, méthoxy-8 (pipéridino-3 propylamino)-6 11-H indolo [3,2-c]quinoléine]
- IC50 [2]: 640 nM

Structure (SMILES): COc1ccc2c(c1)c1c(NCCCN(C)C)nc3ccccc3c1n2C [Dérivé N°2, (diméthylamino-3 propylamino)-6 méthoxy-8 méthyl-11 11-H indolo[3,2-c]quinoléine]
- IC50 [2]: 400 nM
